For experiment [1], the system named is cells (surface nucleolin). Nature of the experiment: Internalization of nucleolin ligands (quoted). The class given is cell-based. To be noted: HB-19, 20°C; compared with GROs.
In experiment [2] the test system is MDA-MB-435 tumor-cell xenografts. Nature of the experiment: MDA-MB-435 xenograft in nude mice. The class given is in vivo, human. The conditions noted are these: HB-19 5 mg/kg, intraperitoneal, 3 times/week, 8 weeks, n = 10. On the procedure:
Figure 8 HB-19 inhibits tumor growth in the nude mice. (A) HB-19 inhibits the growth of MDA-MB-231 tumor-cell xenografts. Cells (2×10^6) were injected subcutaneously into the right flank of female nude mice. Two weeks later, mice with a palpable tumor of approximately 40 mm^3 in volume were randomly separated into three groups (n = 5) and were given peritumoral injections 3 times/week of 0.1 ml PBS alone (Control), HB-19 (5 mg/kg), or Tamoxifen (Tmx) 10 mg/kg) for 6 weeks. (B) HB-19 inhibits the growth of MDA-MB-435 tumor-cell xenografts. Cells (1×10^6) were injected in the mammary fat pad of female nude mice. Two weeks later, mice with a palpable tumor were randomly separated into three groups (n = 10) and were given intraperitoneal injections 3 times/week of 0.1 ml PBS alone (Control), HB-19 (5 mg/kg), or 5-fluouracil (5-FU, 40 mg/kg) for 8 weeks. At the end of each experiment (in A and B), mice were sacrificed and the tumors were excised and weighed. The results are presented as the mean weight ±standard deviation (±S.D.) obtained from the number of mice in each group. (C, D) Inhibition of tumor development in mice treated by intraperitoneal (i.p.) and subcutaneous (s.c.) administration of HB-19. MDA-MB-231 tumor bearing mice in three groups (n = 10) were treated with HB-19 (10 mg/kg) by i.p. or s.c. injections, 3 times/week for 28 days. […]
A general note: In xenograft studies the graft and the host belong to different species.

For experiment [3], the system named is HUVECs. Description: Proliferation of VEGF stimulated HUVECs. The class given is cell-based, human. The conditions noted are these: 0.25 nM VEGF165; 1 µM HB-19 or 0.1 µM mAb MS-3; 72 h; mean of triplicate. On the procedure:
Figure 6 Inhibition of in vitro and in vivo angiogenesis by HB-19. (A) HB-19 inhibits proliferation of HUVECs. Twenty-four hours after seeding HUVECs in 2% FBS, cells were stimulated by 0.25 nM VEGF165, in the absence or presence of 1 µM HB-19 or 0.1 µM anti-nucleolin mAb MS-3 as indicated. After 72 h, cell number was determined by crystal violet staining. The data are reported as the mean of triplicate samples. (B) HB-19 inhibits migration of HUVECs. Cell migration was studied using a modified Boyden chamber. Cells were incubated (4 h at 37°C) with VEGF165, HB-19, or anti-nucleolin mAb MS-3 as above. Cells that migrated through the pore to the lower filter surface were counted and are shown as number per microscopic field at ×100 magnification. The data are the mean of three independent high-power fields/well performed in duplicate in two independent experiments. […] Aortic endothelial (ABAE) cells in the absence or presence of 3 nM PTN, 0.5 nM VEGF165, and 3 nM FGF-2 were seeded on a three-dimensional collagen gel in complete medium. […] Tubular network structures were quantified using phase contrast microscopy (×100). […] Quantification of endothelial cell invasion into the Matrigel was determined and is expressed as a mean of five fields per section from 3 Matrigel-plug sections per mouse. The results are expressed as the mean of five mice per group. […]

The subject of experiment [4] is Aortic endothelial (ABAE) cells. Nature of the experiment: Tubular network structure formation in collagen gel. The experiment is classed as cell-based, bovine. On the procedure:
Figure 6 Inhibition of in vitro and in vivo angiogenesis by HB-19. (A) HB-19 inhibits proliferation of HUVECs. Twenty-four hours after seeding HUVECs in 2% FBS, cells were stimulated by 0.25 nM VEGF165, in the absence or presence of 1 µM HB-19 or 0.1 µM anti-nucleolin mAb MS-3 as indicated. After 72 h, cell number was determined by crystal violet staining. The data are reported as the mean of triplicate samples. (B) HB-19 inhibits migration of HUVECs. Cell migration was studied using a modified Boyden chamber. Cells were incubated (4 h at 37°C) with VEGF165, HB-19, or anti-nucleolin mAb MS-3 as above. Cells that migrated through the pore to the lower filter surface were counted and are shown as number per microscopic field at ×100 magnification. The data are the mean of three independent high-power fields/well performed in duplicate in two independent experiments. […] Aortic endothelial (ABAE) cells in the absence or presence of 3 nM PTN, 0.5 nM VEGF165, and 3 nM FGF-2 were seeded on a three-dimensional collagen gel in complete medium. Treatment with HB-19 or anti-nucleolin mAb MS-3 was for 3 days after cell plating. Tubular network structures were quantified using phase contrast microscopy (×100). The ordinate gives the number of pseudocapillaries corresponding to the means of three randomly chosen fields/well from three wells. (D) HB-19 inhibits […] angiogenic activity of growth factors in a Matrigel plug model. Liquid Matrigel was subcutaneously injected into the flank of Swiss mice in the absence or presence of 5 nM PTN, 10 nM FGF-2, and 1 µM HB-19. Quantification of endothelial cell invasion into the Matrigel was determined and is expressed as a mean of five fields per section from 3 Matrigel-plug sections per mouse. The results are expressed as the mean of five mice per group. Statistical significance: *p<0.05, **p<0.01, ***p<0.001.
Three-dimensional collagen gels were prepared following the procedure of Montesano with minor modifications. […] Tubular network structures were then quantified using phase contrast microscopy at 100× magnification. […]

The next experiment relates to tumor cells. Description: Apoptosis in HB-19 treated cells. The experiment is classed as cell-based. The conditions noted are these: not shown.
Experiment [5] deals with HUVECs. Nature of the experiment: FACScan competition of HB-19/Btn binding to HUVECs. More on the design: species or system human. The conditions noted are these: 1 µM HB-19/Btn, 4 °C, competitor 50 µM. On the procedure: Figure 3 Specific binding and entry of HB-19 in endothelial cells. (A) HB-19/Btn forms a stable complex with nucleolin expressed on the surface of HUVECs. Cells were incubated (45 min, 20°C) with 0, 1, 2, 4, 8 and 12 µM of HB-19/Btn before preparation of surface/cytoplasmic and nuclear extracts and recovery of surface nucleolin from the surface/cytoplasmic extracts as in Figure 2A. Material extracted from 2×10^7 and 2×10^6 cells was analyzed in panels Surface and Surface/Cytoplasm or Nucleus, respectively. Immunoblotting was with the anti-nucleolin mAb D3. (B) The specific binding of HB-19/Btn to HUVECs. The binding of 1 µM HB-19/Btn was studied at 4 °C by FACScan analysis. To show the specificity of binding, the reaction was carried out in the absence or presence of 50 µM HB-19, F3, or 9Arg peptides. The ordinate gives the relative cell number, whereas the abscissa gives the relative fluorescence intensity. (C) HB-19 entry in HUVECs. Cells were incubated with 5 µM of HB-19/Btn (1 hour, 37°C) before fixation in PFA (for surface binding) or PFA-Triton (for entry), respectively. Cells were then successively incubated with rabbit anti-biotin antibodies and goat Texas Red-conjugated anti-rabbit IgG, and processed for confocal microscopy. The scans of cells toward the middle cell layer are presented (with the DAPI stained nuclei).

Here are results for one substance from PMC2424174, “Suppression of Tumor Growth and Angiogenesis by a Specific Antagonist of the Cell-Surface Expressed Nucleolin” (PLoS ONE, 2008).

In the case of “pseudo-tripeptide Lysψ(CH2N)-Pro-Arg coupled to a template (H2NLys-Lys-Lys-Gly-Pro-Lys-Glu-Lys-AhxCONH2) [HB-19, pseudopeptide presenting pentavalently the pseudo-tripeptide Lysψ(CH2N)-Pro-Arg coupled to a template]”, the “localization at 20°C” value in experiment [1] is recorded as “remains aggregated at the plasma membrane”. For the same substance, the “inhibition of tumor growth” value in experiment [2] came out at 57%. For the same substance, the “inhibition of HUVEC proliferation” value in the experiment with HUVECs [3] is “inhibited dramatically both of these events down to levels comparable to that of unstimulated cells”. In addition, the “capillary-like structure formation, VEGF induced” value in experiment [4] (0.5 nM VEGF165, treatment 3 days) is “inhibited formation of capillary-like branched structures”. For the same substance, the “tubular network formation, FGF-2 induced” value in experiment [4] (3 nM FGF-2, treatment 3 days) is “inhibits tubular network structure formation in collagen”. Further, the “capillary-like structure formation, PTN induced” value in experiment [4] (3 nM PTN, treatment 3 days) is “inhibited formation of capillary-like branched structures”. The apoptosis result with tumor cells is on record as “not observed”. In addition, in the experiment on HUVECs [5], the “prevention of HB-19/Btn binding” value is on record as “prevented by the excess HB-19”.
